In US20050026827A1, “Octapeptide bombesin analogs” (Societe de Conseils de Recherches et d'Applications …, priority 1987, published 2005):
Where two headings read alike, the source gives them in different places. Values belong to the compound of their own block, whether it stands above or below them. Non-standard residues stand in square brackets, D forms with d. Residues, ends and D or L forms follow the SMILES beside them. *: point of attachment. X1 = CC(C)C[C@H](NC[C@H](Cc1ccccc1)N*)C(N)=O; X2 = CC(C)C[C@@H](CN[C@@H](CC(C)C)C(N)=O)N*; Sta = CC(C)C[C@H](N)[C@@H](O)CC(=O)O; pGlu = O=C1CC[C@@H](C(=O)O)N1

Columns and labels:
[1] = target: T1, 3T3 fibroblast bombesin receptors (3T3 GRP receptor) (Mus musculus, UniProt P21729); assay: In vitro inhibition of [125I]GRP binding to 3T3 fibroblast bombesin receptors; parameters: species or system murine; conditions: for activity in the 3T3 GRP receptor binding assay (in words): Table 1
T1 construct: Membranes from various tissues (rat brain, rat pancreas, rat anterior pituitary, SCLC, 3T3 cells) are prepared by homogenization; endogenous in cells; host or cells: 3T3 fibroblasts (membrane preparation)
Description: Phase 4—In Vitro Inhibition of [^125I] Gastrin Releasing Peptide (GRP) Binding to Bombesin Receptors
Membranes from various tissues (rat brain, rat pancreas, rat anterior pituitary, SCLC, 3T3 cells) are prepared by homogenization in 50 mM TrisHCl containing 0.1% bovine serum albumin and 0.1 mg/ml bacitracin followed by two centrifugations (39,000×g×15 min., 4° C.) with an intermediate resuspension in-fresh buffer. For assay, aliquots […] are incubated with 0.5 nM [^125I]GRP (˜2000 Ci/mmol, Amersham Corp.) and various concentrations of the test compounds in a final volume of 0.5 ml. After a 30 minute incubation at 4° C., the binding reaction is terminated by rapid filtration through Whatman GF/C filters that have been pre-soaked in 0.3% aqueous polethyleneimine to reduce the level of nonspecific binding. The filters and tubes are washed three times with 4 ml aliquots of ice-cold buffer, and the radioactivity trapped on the filters is counted by gamma-spectrometry. Specific binding is defined as the total. [^125I]GRP bound minus that bound in the presence of 1000 nM. bombesin or a related peptide.
(§1) A number of analogs of bombesin or GRP, each containing a non-peptide bond or a statine, AHPPA, or ACHPA, β-amino acid, or γ-amino acid residue, can be synthesized and tested in one or more of the above-described Phase 1-7 assays; the results of Phase 1 and 2 tests are given in Table 1 attached hereto. […] (3T3 GRP receptor and thymidine uptake data are expressed in IC50 (nM).) Table 1 also gives results for non-peptide bond-containing analogs of one other naturally-occurring peptide, Neuromedin C, whose C-terminal seven amino acids are similar to those of bombesin and GRP. (In Table 1, “Litorin” indicates a 9 residue peptide analog or its derivative, whereas “Neuromedin C” indicates a 10 residue analog or its derivative.)

swiss 3T3 cells = swiss 3T3 cells (Mus musculus, UniProt P21729); assay: Bombesin-stimulated [3H]thymidine uptake by cultured 3T3 cells; assay type: cell-based, murine; conditions: Table 1
Description: Phase 1—3T3 Peptide Stimulated [^3H] Thymidine Uptake Assay
Cell Culture. Stock cultures of swiss 3T3 cells are grown in Dulbecco's Modified Eagles Medium (DMEM) supplemented with 10% fetal calf serum in humidified atmosphere of 10% CO2/90% air at 37° C. For experimental use, the cells are seeded into 24-well cluster trays and used four days after she last change of medium. The cells are arrested in the G1/G0 phase of the cell cycle by changing to serum-free DMEM 24 hours prior to the thymidine uptake assay.
Assay of DNA Synthesis. The cells are washed twice with 1 ml aliquots of DMEM (-serum) then incubated with DMEM (-serum), 0.5 μM [methyl-^3H] thymidine (20 Ci/mmole, New England Nuclear), bombesin (3 nM), and initially four concentrations of the test compounds (1, 10, 100, 1000 nM) in a final volume of 1.0 ml. After 28 hours at 37° C., [methyl-^3H] thymidine incorporation into acid-insoluble pools is assayed as follows. The cells are washed twice with ice-cold 0.9% NaCl (1 ml aliquots), and acid soluble radioactivity is removed by a 30 min. (4° C.) incubation with 5% trichloroacetic acid (TCA). The cultures are then washed once (1 ml) with 95% ethanol and solubilized by a 30 min. incubation (1 ml) with 0.1N NaOH. The solubilized material is transferred to vials containing 10 ml ScintA (Packard), and the radioactivity is determined by liquid scintillation spectrometry.
as §1

[2] = Body weight (minus tumor weight) during BIM-26100 treatment of tumor-bearing animals; assay type: in vivo, athymic nude females; conditions: for Body Weight(gm) Day 0 / Body Weight(gm) Day 18 / Body Weight(gm) Day 28: 50 μg/inj., b.i.d., QD1-28, tumor weight subtracted
From the text: (§2) These observations prompted us to evaluate the effect of BIM-26100 on the in vivo growth of the SCLC tumor cell line described in Phase 6. Twenty athymic nude females, 5 to 6 weeks of age, were implanted on day 0 with the NCI-H69 human SCLC, individually identified and then randomized into the following vehicle control and test groups:
(§3) Growth of NCI-H69 xenografts and the tumor growth inhibitory activity of the bombesin antagonist BIM-26100 (pGlu-Gln-Trp-Ala-Val-Gly-His-Pheψ[CH2NH]Leu-NH2) are illustrated as tumor growth curves in FIG. 1, and relative tumor sizes in Table 2. […] The effectiveness of the antitumor activity of BIM-26100 is evident in view of the large inoculum of NCI-H69 tumor cells (i.e. the equivalent of 5 confluent 75 cm^2 cell culture flasks per animal) and the agglomerated condition of the cells. In confluent flasks, NCI-H69 agglomerates are macroscopically visible and together resemble a metastatic tumor colony. Many such tumor colonies were implanted per animal. The dose of BIM-26100 […] and is not optimal. Higher doses of BIM-26100 may be administered, as indicated by body weight gain (minus tumor weight) gain during the course of treatment (Table 3).

NCI-H69 human SCLC = assay: In vivo antitumor activity, NCI-H69 small cell lung carcinoma xenografts; conditions: for Tumor Size Day 18 (mm) / % Test/Control (Day 18) / % Test/Control (Day 28) / Tumor Size Day 28 (mm): 50 μg/inj., b.i.d., QD1-28; for Tumor Size Day 18 (mm) / Tumor Size Day 28 (mm): mean ± SD
Description: Phase 6—In Vivo Antitumor Activity
NCI-H69 small cell lung carcinoma cells were transplanted from in vitro culture by implanting each animal with the equivalent of 5 confluent 75 cm^2 tissue culture flasks in the right flank. In vitro NCI-H69 cells grow as a suspension of cellular aggregates. Therefore, no attempt was made to disaggregate the cell agglomerates by physical or chemical means. Tumor size was calculated as the average of two diameters, i.e., (length and width/2) mm.
as §2, §3

[3] = target: 3T3 fibroblast bombesin receptors (murine (3T3 murine fibroblasts)) (UniProt P21729)

T1 sequence (P21729 whole entry): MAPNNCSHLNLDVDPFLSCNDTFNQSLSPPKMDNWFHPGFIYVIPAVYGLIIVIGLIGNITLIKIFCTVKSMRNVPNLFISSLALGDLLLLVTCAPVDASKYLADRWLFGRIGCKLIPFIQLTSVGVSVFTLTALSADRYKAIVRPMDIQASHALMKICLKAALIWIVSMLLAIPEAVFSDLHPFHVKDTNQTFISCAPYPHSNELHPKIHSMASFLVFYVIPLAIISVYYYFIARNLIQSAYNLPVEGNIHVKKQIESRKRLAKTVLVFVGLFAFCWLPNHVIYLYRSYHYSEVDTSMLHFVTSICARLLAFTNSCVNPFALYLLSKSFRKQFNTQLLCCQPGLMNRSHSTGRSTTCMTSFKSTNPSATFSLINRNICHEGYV
Chain of swiss 3T3 cells (P21729 whole entry): as above

- activity in the 3T3 GRP receptor binding assay (in words) [1]: antagonists
- activity in the 3T3 thymidine uptake assay (in words) (swiss 3T3 cells): antagonists
Compound: CC(C)C[C@@H](CN[C@@H](CC(C)C)C(N)=O)NC(=O)[C@H](Cc1c[nH]cn1)NC(=O)CNC(=O)[C@@H](NC(=O)[C@H](C)NC(=O)[C@H](Cc1c[nH]c2ccccc12)NC(=O)[C@H](Cc1c[nH]cn1)NC(=O)[C@H](CC(N)=O)NC(=O)CN)C(C)C [BIM-26092, Gly-Asn-His-Trp-Ala-Val-Gly-His-Leuψ[CH2NH]Leu-NH2] (H-GNHWAVGH-X2)

- IC50 ([1]; inhibition of [125I]GRP binding, 3T3 membranes, read-out: 3T3 GRP Receptor IC50): 2620 nM
Compound: CC(C)C[C@@H](CN[C@@H](CC(C)C)C(N)=O)NC(=O)[C@H](Cc1c[nH]cn1)NC(=O)[C@@H](C)NC(=O)[C@@H](NC(=O)[C@H](C)NC(=O)[C@H](Cc1c[nH]c2ccccc12)NC(=O)[C@H](CCC(N)=O)NC(=O)[C@@H]1CCC(=O)N1)C(C)C [BIM-26095, pGlu-Gln-Trp-Ala-Val-D-Ala-His-Leuψ[CH2NH]Leu-NH2] ([pGlu]QWAV[dA]H-X2)

Compound: CC(C)C[C@H](NC[C@H](Cc1ccccc1)NC(=O)[C@H](Cc1c[nH]cn1)NC(=O)CNC(=O)[C@@H](NC(=O)[C@H](C)NC(=O)[C@H](Cc1c[nH]c2ccccc12)NC(=O)[C@H](CCC(N)=O)NC(=O)[C@@H]1CCC(=O)N1)C(C)C)C(N)=O [BIM-26100, pGlu-Gln-Trp-Ala-Val-Gly-His-Pheψ[CH2NH]Leu-NH2] ([pGlu]QWAVGH-X1)
- Body Weight(gm) Day 0 ([2]; s.c. inf.): 17.7 gm
- Body Weight(gm) Day 18 ([2]; s.c. inf.): 20.4 gm
- Body Weight(gm) Day 28 ([2]; s.c. inf.): 21.1 gm
- Body Weight(gm) Day 0 ([2]; s.c.): 16.9 gm
- Body Weight(gm) Day 18 ([2]; s.c.): 19.2 gm
- Body Weight(gm) Day 28 ([2]; s.c.): 19.1 gm
- local or systemic toxicity (in words) ([2]; judged from body weight gain during treatment): completely lacks local or systemic toxicity
- activity in the 3T3 GRP receptor binding assay (in words) [1]: most active
- Tumor Size Day 18 (mm) (NCI-H69 human SCLC; s.c. inf. (infused around tumor)): 7.6 ± 1.56 mm
- % Test/Control (Day 18) (NCI-H69 human SCLC; s.c. inf.): 70%
- % Test/Control (Day 28) (NCI-H69 human SCLC; s.c. inf.): 86%
- Tumor Size Day 28 (mm) (NCI-H69 human SCLC; s.c. inf.): 13.7 ± 0.67 mm
- % Test/Control (Day 18) (NCI-H69 human SCLC; s.c.): 93%
- Tumor Size Day 18 (mm) (NCI-H69 human SCLC; s.c.): 10.1 ± 1.47 mm
- % Test/Control (Day 28) (NCI-H69 human SCLC; s.c.): 108%
- Tumor Size Day 28 (mm) (NCI-H69 human SCLC; s.c.): 17.3 ± 1.96 mm
- tumor growth inhibitory activity (in words) (NCI-H69 human SCLC; s.c. infusion around the tumor): significantly inhibited tumor growth

Compound: CC(C)C[C@@H](CN[C@@H](CC(C)C)C(N)=O)NC(=O)[C@H](Cc1c[nH]cn1)NC(=O)CNC(=O)[C@@H](NC(=O)[C@H](C)NC(=O)[C@H](Cc1c[nH]c2ccccc12)NC(=O)[C@H](CCC(N)=O)NC(=O)[C@@H]1CCC(=O)N1)C(C)C [BIM-26101, pGlu-Gln-Trp-Ala-Val-Gly-His-Leuψ[CH2NH]Leu-NH2] ([pGlu]QWAVGH-X2)
- activity in the 3T3 GRP receptor binding assay (in words) [1]: most active

Compound: CC(C)C[C@@H](CN[C@@H](CC(C)C)C(N)=O)NC(=O)[C@H](Cc1c[nH]cn1)NC(=O)[C@@H](C)NC(=O)[C@@H](NC(=O)[C@H](C)NC(=O)[C@H](Cc1c[nH]c2ccccc12)NC(=O)[C@H](Cc1c[nH]cn1)NC(=O)[C@H](CC(N)=O)NC(=O)[C@@H](C)N)C(C)C [BIM-26105, D-Ala-Asn-His-Trp-Ala-Val-D-ALa-His-Leuψ[CH2CH]Leu-NH2] (H-[dA]NHWAV[dA]H-X2; N-terminus assumed)
- IC50 [1]: 107 nM
- activity in the 3T3 GRP receptor binding assay (in words) [1]: antagonists
- activity in the 3T3 thymidine uptake assay (in words) (swiss 3T3 cells): antagonists

Compound: CC(C)C[C@@H](CN[C@@H](CC(C)C)C(N)=O)NC(=O)[C@H](Cc1c[nH]cn1)NC(=O)CNC(=O)[C@@H](NC(=O)[C@H](C)NC(=O)[C@H](Cc1c[nH]c2ccccc12)NC(=O)[C@H](CCC(N)=O)NC(=O)[C@H](N)Cc1ccccc1)C(C)C [BIM-26113, D-Phe-Gln-Trp-Ala-Val-Gly-His-Leuψ[CH2NH]Leu-NH2]
- IC50 [1]: 5.8 nM
- activity in the 3T3 GRP receptor binding assay (in words) [1]: active

- activity in the 3T3 thymidine uptake assay (in words) (swiss 3T3 cells): potent antagonists
Compound: CC(C)C[C@H](NC(=O)[C@H](Cc1c[nH]cn1)NC(=O)CNC(=O)[C@@H](NC(=O)[C@H](C)NC(=O)[C@H](Cc1c[nH]c2ccccc12)NC(=O)[C@H](CCC(N)=O)NC(=O)[C@@H]1CCC(=O)N1)C(C)C)[C@@H](O)CC(N)=O [BIM-26120, pGlu-Gln-Trp-Ala-Val-Gly-His-Sta-NH2] ([pGlu]QWAVGH[Sta]-NH2)

- bombesin-stimulated [3H]Thymidine uptake, IC50 [3]: 1210 nM
Compound: BIM-26095, pGlu-Gln-Trp-Ala-Val-D-Ala-His-Leuψ[CH2NH]Leu-NH2 (Litorin analog) (peptide)

- bombesin-stimulated [3H]Thymidine uptake, IC50 [3]: 107 nM
Compound: BIM-26105, D-Ala-Asn-His-Trp-Ala-Val-D-ALa-His-Leuψ[CH2CH]Leu-NH2 (Neuromedin C analog) (peptide)

- bombesin-stimulated [3H]Thymidine uptake, IC50 [3]: 354 nM
Compound: BIM-26106, desGly-D-Ala-His-Trp-Ala-Val-D-ALa-His-Leuψ[CH2CH]Leu-NH2 (Neuromedin C analog) (peptide)

- bombesin-stimulated [3H]Thymidine uptake, IC50 [3]: 154 nM
Compound: BIM-26107, D-Phe-His-Trp-Ala-Val-Gly-His-Leuψ[CH2NH]Leu-NH2 (Neuromedin C analog) (peptide)

- bombesin-stimulated [3H]Thymidine uptake, IC50 [3]: > 1000 nM
Compound: BIM-26108, N-Ac-D-Ala-His-Trp-Ala-Val-Gly-His-Leuψ[CH2NH]Leu-NH2 (GRP (19-27) analog) (peptide)

- bombesin-stimulated [3H]Thymidine uptake, IC50 [3]: 9 nM
Compound: BIM-26113, D-Phe-Gln-Trp-Ala-Val-Gly-His-Leuψ[CH2NH]Leu-NH2 (Litorin analog) (peptide)

- bombesin-stimulated [3H]Thymidine uptake, IC50 [3]: 28.6 nM
Compound: BIM-26122, D-Phe-Gln-Trp-Ala-Val-Gly-His-Leu-NH2 (Litorin analog) (peptide)
